Columns and labels:
myoblasts (C2C12) = assay: in vitro differentiation induction of myoblasts (C2C12) into skeletal muscle cells in medium containing Colon26 culture supernatant (myotube formation); type: cell-based, Mouse; details: Colon26 cells treated at 25 µM for 24 hours; 50% supernatant in horse serum-supplemented DMEM; C2C12 observed on day 9, phase-contrast microscope
Procedure: Mouse myoblasts (C2C12, RIKEN cell bank) and mouse colon cancer cells (Colon26, RIKEN cell bank) were used. The culture medium used was DMEM medium (Sigma-Aldrich Japan) or RPMI medium (Sigma-Aldrich Japan) supplemented with 10% fetal bovine serum (Gibco), 100 units/mL penicillin G (Sigma-Aldrich Japan) and 100 µg/mL streptomycin (Sigma-Aldrich Japan).
(§1) Colon26 cells were seeded at a concentration of 5 × 10^4 cells/cm^2 in a culture dish with a diameter of 10 mm, and cultured at 37°C, 5% CO2 to 80% to 90% confluency. The medium was then changed to a medium supplemented with 16:0 lysophosphatidylcholine (hereinafter referred to as LPC), 18:0 LPC, 16:0 phosphatidylcholine (hereinafter referred to as PC), or 18:0 PC (all manufactured by Avanti Polar Lipids) at a final concentration of 25 µM, or a medium not containing LPC or PC. The cells were cultured for another 24 hours. After the cells were washed with PBS, the medium was changed to serum-free RPMI medium, and the cells were cultured for another 48 hours. The medium was collected and centrifuged at 4°C and 3000 rpm for 20 minutes to precipitate the cellular components. The supernatant was sterile-filtered using a 0.22 µm sterile filter (Merck Millipore) and stored at -80°C until use.
C2C12 cells were cultured to 80% to 90% confluency in a 6-well culture plate. The medium was changed to DMEM medium supplemented with horse serum (Gibco, final concentration: 2%) or horse serum-supplemented DMEM medium containing 50% supernatant of one of the five types prepared in the above (2), and the cells were cultured for 9 days to induce differentiation into skeletal muscle cells. On day 9, the morphology of the cells was observed under a phase-contrast microscope.

Mesenchymal OP9 cells = assay: in vitro differentiation induction of mesenchymal cells (OP9) into adipocytes in medium containing Colon26 culture supernatant (Oil Red O staining); type: cell-based; details: Colon26 cells treated at 25 µM; 10% supernatant in adipocyte differentiation medium; OP9 observed on day 7
Procedure: as §1
Mesenchymal OP9 cells (RIKEN cell bank) were used. The culture medium used was MEM medium (Sigma-Aldrich Japan) supplemented with 20% fetal bovine serum (Gibco), 100 units/mL penicillin G (Sigma-Aldrich Japan), 100 µg/mL streptomycin (Sigma-Aldrich Japan), and 2 mM L-glutamine.
OP9 cells were seeded at a concentration of 7 × 10^3 cells/cm^2 in a 96-well culture plate and cultured to confluency. […]

IL-6 = IL-6 levels in culture supernatant of colon cancer cells (Colon26) treated with PC or PS (ELISA); type: cell-based, mouse; details: 16:0 PC or 18:0 PC 25 µM, PS 100 µg/ml, 24 hours; then 48 hours in serum-free RPMI
Procedure: Colon26 cells were seeded at a concentration of 5 × 10^4 cells/cm^2 in the medium used in Example 1 in a culture dish with a diameter of 10 mm, and cultured at 37°C, 5% CO2 to 80% to 90% confluency. To the culture dish, 16:0 PC or 18:0 PC was added at a final concentration of 25 µM, and PS (Larodan) was added at a final concentration of 100 µg/ml. The cells were cultured for 24 hours. After the cells were washed with PBS, the medium was changed to serum-free RPMI medium (Wako), and the cells were cultured for another 48 hours. The medium was collected and centrifuged at 4°C and 3000 rpm for 20 minutes to precipitate the cellular components. The supernatant was filtered through a 0.22 µm sterile filter to remove precipitates from the supernatant. The […] IL-6 level in the supernatant was measured using LEGEND MAX Mouse IL-6 ELISA Kit (BioLegend).

Leptin gene = assay: quantitative PCR of Leptin gene in epididymal fat tissue of Colon26 tumor-bearing mice, intravenous PC; type: in vivo, mouse; details: 3 mg/kg via the tail vein every 3 or 4 days, day 36 post-transplantation
Procedure: (§2) Mice were transplanted with Colon26 cells in the same manner as in Example 3, and one week later, divided into three groups: a non-cancer cell transplantation group (control), a cancer cell transplantation group with administration of a solvent (PBS, n = 20), and a cancer cell transplantation group with administration of PC (PC, n = 20). PC and a solvent (PBS) were administered by the same dosing schedule as that in Example 3. During the dosing period, the general conditions of the mice were observed every day. The survival rate was calculated by counting the number of dead individuals. The surviving mice were euthanized on day 36 post-transplantation of Colon26 cells, and the epididymal fat tissue was harvested to measure the weight (groups of n = 8 each). Total RNA was recovered from less than 100 mg of the epididymal fat tissue, and cDNA was synthesized and subjected to qPCR in the same manner as in Example 3 (groups of n = 2 each). The reagents and devices were the same as those used in Example 3. The primer set shown below was used to detect the Leptin gene, which is known to have the function of maintaining fat tissue. The primer set for amplification of the mouse GAPDH gene was the same as that used in Example 3.
Primer set for amplification of mouse Leptin gene: • sense 5'-[…]-3' (SEQ ID NO: 7), and • anti-sense 5'-GCCATCCAGGCTCTCTGG-3' (SEQ ID NO: 8).

MuRF-1 gene = assay: quantitative PCR of MuRF-1 gene in muscle of Colon26 tumor-bearing mice, intravenous PC; type: in vivo, mouse; details: 3 mg/kg via the tail vein every 3 or 4 days, day 36 post-transplantation
Procedure: (§3) Male BalB/c mice (SLC) at 8 to 9 weeks old were used. Colon26 cells were cultured to 80% to 90% confluency in the same manner as in Example 1 and suspended in PBS to a concentration of 1 × 10^6 cells/mL. Then, 100 µL of the cell suspension was subcutaneously transplanted into the right upper flank of the mice. Every 3 or 4 days, the body weight of the mice was measured, and the general conditions of the mice were observed. The tumor size [1/2(a × b^2) mm^3] was calculated by measuring the maximum diameter (a) and the minimum diameter (b) of the tumor.
(§4) Hydrogenated PC (HSPC; Avanti Polar Lipids) was dissolved in ethanol to a concentration of 50 mM and stored at -20°C until use.
(§5) We set up three groups of mice: a non-cancer cell transplantation group (control), a cancer cell transplantation group with administration of a solvent (PBS), and a cancer cell transplantation group with administration of PC (PC). […]
(§6) The mice were euthanized on day 36 post-transplantation of Colon26 cells, and the gastrocnemius and tibialis muscles were harvested to measure the weight. Twenty milligrams of each muscle tissue was homogenized using High Power Homogenizer ASG50 (AS ONE Corporation), and the total RNA was recovered using RNeasy Fibrous Mini Kit (Qiagen). cDNA was synthesized from the total RNA using PrimeScript RT reagent Kit (Takara) and subjected to quantitative PCR (qPCR). […]

[1] = system: tumor-bearing mice (Colon26); assay: weight of epididymal fat tissue in Colon26 tumor-bearing mice, intravenous PC; type: in vivo; details: 3 mg/kg via the tail vein every 3 or 4 days; day 36 post-transplantation
Procedure: as §2

Atrogin-1 gene = assay: quantitative PCR of Atrogin-1 gene in muscle of Colon26 tumor-bearing mice, intravenous PC; type: in vivo, mouse; details: 3 mg/kg via the tail vein every 3 or 4 days, day 36 post-transplantation
Procedure: as §3, §4, §5, §6

[2] = system: tumor-bearing mice (Colon26); assay: survival rate of Colon26 tumor-bearing mice, intravenous PC; type: in vivo; details: 3 mg/kg via the tail vein every 3 or 4 days; compared with solvent (PBS) group
Procedure: as §2

[3] = system: tumor-bearing mice (Colon26); assay: muscle weight in Colon26 tumor-bearing mice, intravenous PC; type: in vivo; details: 3 mg/kg via the tail vein every 3 or 4 days from one week after transplantation; day 36 post-transplantation
Procedure: as §3, §4, §5, §6

For CCCCCCCCCCCCCCCC(=O)OCC(O)COP(=O)([O-])OCC[N+](C)(C)C (stereo not drawn) [16:0 LPC, 16:0 lysophosphatidylcholine], the myotube formation (myoblasts (C2C12)) was “myotube formation was observed” and the “adipocyte differentiation (Oil Red O)” value (Mesenchymal OP9 cells) was “inhibition of adipocyte differentiation was prevented”.

In the case of CCCCCCCCCCCCCCCC(=O)OCC(COP(=O)([O-])OCC[N+](C)(C)C)OC(=O)CCCCCCCCCCCCCCC (stereo not drawn) [16:0 PC, 16:0 phosphatidylcholine], the myotube formation (myoblasts (C2C12)) is reported as “myotube formation was observed” and the “IL-6 levels in the culture supernatant of Colon26 cells” value (“IL-6 levels in the culture supernatant” for short) (IL-6) is reported as “direct inhibitory effect on the expression of IL-6 in cancer cells”.

For CCCCCCCCCCCCCCCCCC(=O)OCC(O)COP(=O)([O-])OCC[N+](C)(C)C (stereo not drawn) [18:0 LPC], the myotube formation (myoblasts (C2C12)) was “myotube formation was observed”.

In the case of CCCCCCCCCCCCCCCCCC(=O)OCC(COP(=O)([O-])OCC[N+](C)(C)C)OC(=O)CCCCCCCCCCCCCCCCC (stereo not drawn) [18:0 PC], the myotube formation (myoblasts (C2C12)) is reported as “myotube formation was observed” and the “IL-6 levels in the culture supernatant” value (IL-6) is reported as “direct inhibitory effect on the expression of IL-6 in cancer cells”.

In the case of Hydrogenated PC, the “expression of the Leptin gene” value (Leptin gene) is reported as “comparable to that in normal mice”, the “expression of the MuRF-1 gene” value (MuRF-1 gene) is reported as “comparable to that in normal mice” and the “weight of the epididymal fat tissue” value [1] is reported as “weight loss in the fat tissue was not observed”. For the same compound, the “expression of the Atrogin-1 gene” value (Atrogin-1 gene) was “comparable to that in normal mice”, the survival rate [2] was “improved” and the “weight of the gastrocnemius muscle (Gastrocnemius)” value [3] was “muscle weight loss was not observed”. The “weight of the tibialis muscle (Tibialis)” value [3] was “muscle weight loss was not observed”.

In the case of phosphatidylserine [PS], the “IL-6 levels in the culture supernatant” value (IL-6) is reported as “direct inhibitory effect on the expression of IL-6 in cancer cells”.

Reference: patent publication EP4740950A1, “PROPHYLACTIC OR AMELIORATING AGENT FOR CACHEXIA” (The University of Osaka, priority 2023, dated 2025)
